Measured values reported in patent US8802656B2, “Purified phospholipid-non-steroidal anti-inflammatory drug associated compositions and methods for preparing and using same” (priority 2004, dated 2014).
Entries after “also recorded” stand apart in the source; their conditions may differ.

Tested on: rats injected with CFA in a hind paw
Experiment: Pain pressure threshold (modified Randall-Selitto) in rats with CFA-inflamed hind paw, acute oral dosing
Format: in vivo, rat
Settings: for pain pressure threshold: ibuprofen 20 or 50 mg/kg, indomethacin 1 mg/kg intragastric, two hours after dosing, CFA 4 days before, FIG. 4
Experimental: In the second in vivo experiment, we compared the analgesic activity of the acetone preparation of PC-ibuprofen to that of ibuprofen alone (at doses of 20 and 50 mg/kg) in rats and compared the response to a sub-threshod dose of indomethacin (1 mg/kg). The measurements were made on rats, in which 0.1 mL of Complete Freund's Adjuvant (CFA) was subcutaneously injected into the dorsal surface of the left hindpaw, 4 days previously to increase the affected paw's sensitivity to pressure. […] Myeloperoxidase Activity In this experiment, we evaluated the analgesic activity of the test material using a rodent model system previously described in detail. This was accomplished by initially inducing inflammation of a hind paw of male Sprague Dawley rats by subcutaneously injecting 0.1 mL of Complete Freund's Adjuvant (Sigma Chemical Co. St. Louis, Mo.) into the doral surface of the left hind paw. […] For comparison, we also intragastrically administered a group of rats with a sub-threshold dose (1 mg/kg) of the NSAID, indomethacin, that was suspended in 1% methyl cellulose.

SMILES: CC(=O)Oc1ccccc1C(=O)O [ASA, Aspirin]
- pain threshold (CFA induced inflammation, Randall Siletto procedure, ASA formulations, FIG. 13): performed similarly

SMILES: CC(C)Cc1ccc(C(C)C(=O)O)cc1 (stereo not shown) [ibuprofen]
- pain pressure threshold (listed as generic ibuprofen): dose-dependent increase in pain pressure threshold
- pain pressure threshold (listed as unmodified ibuprofen): apparent dose-dependent increase in pain pressure threshold

SMILES: COc1ccc2c(c1)c(CC(=O)O)c(C)n2C(=O)c1ccc(Cl)cc1 [indomethacin]
- pain pressure threshold: no effect; also recorded: non-significant response
